Source: patent US9365522B2, “Pyrazole amide derivative” (AMGEN INC., priority 2015, dated 2016)

Target: T1, human RORγ-LBD (Homo sapiens, UniProt P51449)
T1 construct: made in house; host or cells: E. coli (BL-21)
T1 sequence (P51449 262-518): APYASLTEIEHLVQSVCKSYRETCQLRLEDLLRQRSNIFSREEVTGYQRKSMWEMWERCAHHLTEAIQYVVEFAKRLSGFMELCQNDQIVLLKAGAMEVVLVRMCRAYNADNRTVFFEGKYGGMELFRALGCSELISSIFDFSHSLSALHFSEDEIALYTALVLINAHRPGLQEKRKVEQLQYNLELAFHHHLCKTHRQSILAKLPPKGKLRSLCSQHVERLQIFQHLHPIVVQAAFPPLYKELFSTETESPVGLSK
Test: ROR gamma coactivator peptide recruitment Alphascreen assay (RORγ-LBD binding to GRIP1 coactivator peptide)
Assay type: biochemical
Conditions: 5 nM human RORγ-LBD, 30 nM 7-β-hydroxycholesterol, 50 nM biotinylated GRIP1 coactivator peptide, overnight incubation at room temperature; read-out: result (pIC50, RORγ coactivator peptide recruitment Alphascreen assay) (converted)
Description: Alphascreen™ is a bead-based amplified homogenous luminescent proximity assay that can be used for measuring the effect of compounds on protein-protein interactions. When biological interactions bring donor and acceptor beads into close proximity, reactive oxygen, generated upon laser excitation of the donor beads, initiates a luminescence/fluorescence cascade in the acceptor beads that leads to a highly amplified signal that can be measured as light in the 520-620 nm range. When the acceptor and donor beads are not in proximity, the reactive oxygen decays and only a very low background signal is generated.
An in vitro assay to assess inhibition of RORγ binding to the coactivator GRIP1 was established using Alphascreen™ technology. The interaction between nuclear receptors (NR) and coactivator proteins is a key step in signal transduction from the receptor to the transcriptional machinery and can be measured in vitro using only the ligand binding domain of the nuclear receptor and a peptide containing a coactivator protein LXXLL nuclear receptor binding motif
For the RORγ construct used in the coactivator recruitment assay, nucleotides corresponding to the ligand binding domain (LBD) of wild type human RORγ (amino acids 262-518 of Genbank Accession No. NM_005060.3) were cloned into the pET24 expression vector (Novagen), downstream of in-frame N-terminal 6×His and Flag tag sequences. Recombinant 6×His:Flag-tagged human RORγ-LBD protein was expressed in E. coli (BL-21) and purified by affinity chromatography on a nickel Sepharose column, followed by anion exchange chromatography.
A 4× assay mixture of 6×His:Flag-tagged human RORγ-LBD with the agonist ligand 7-β-hydroxycholesterol was prepared in assay buffer (50 mM HEPES pH 7.4, BSA 0.05%, 150 mM NaCl, 5 mM MgCl2, 1 mM DTT, 0.01% Tween-20). For control wells a 4× mixture of 6×His:Flag-tagged human ROR gamma LBD alone was also prepared.
A 4× stock of biotinylated coactivator peptide containing the LXXLL motif from GRIP1 (Biotin-[…]) was prepared in assay buffer.
A 4×detection mixture of nickel chelate Alphascreen™ acceptor beads (PerkinElmer) and streptavidin Alphascreen™ donor beads (PerkinElmer) was prepared in assay buffer.
Compounds to be tested were arranged in a pre-dose 384-well mother plate serially diluted 1 in 2 over 22 columns, in 100% DMSO, at 40× the final test concentration, from a high concentration of 4 mM. DMSO with no compound was placed in control columns. The compounds were robotically dispensed directly into assay plates containing assay buffer to a 4× final test concentration.
Following compound addition, the 6×His:Flag-tagged human RORγ-LBD plus 7-β-hydroxycholesterol assay mixture, biotinylated coactivator peptide and detection mixture were added. Final assay conditions were 5 nM 6×His:Flag-tagged human RORγ-LBD, 30 nM 7-β-hydroxycholesterol, 50 nM biotinylated coactivator peptide, 2.5 ug/ml nickel acceptor beads and 10 ug/ml streptavidin donor beads. The final concentration of DMSO in the assay was 2.5%.
After overnight incubation at room temperature plates were read on and Envision™ plate reader (PerkinElmer).
Data was plotted and pIC50 values were calculated using the Genedata Screener™ data analysis suite (Genedata).

Structure (SMILES) | IC50 [nM]
Cc1ccc(CCN(Cc2ccc(Cl)cc2)C(=O)c2cnn([C@H]3CC[C@H](C(=O)O)CC3)c2C(F)(F)F)c(C)c1 [Example 505, trans-4-(4-((4-chlorobenzyl)(2-(2,4-dimethylphenyl)ethyl)carbamoyl)-5-(trifluoromethyl)-1H-pyrazol-1-yl)cyclohexanecarboxylic acid] | 5.89
O=C(c1cnn([C@H]2CC[C@H](C(=O)O)CC2)c1C(F)(F)F)N(CCc1cccc2[nH]ccc12)Cc1ccc(Cl)cc1 [Example 506, trans-4-(4-((4-chlorobenzyl)(2-(1H-indol-4-yl)ethyl)carbamoyl)-5-(trifluoromethyl)-1H-pyrazol-1-yl)cyclohexanecarboxylic acid] | 69.2
O=C(c1cnn([C@H]2CC[C@H](C(=O)O)CC2)c1C(F)(F)F)N(CCc1c[nH]c2ccccc12)Cc1ccc(Cl)cc1 [Example 507, trans-4-(4-((4-chlorobenzyl)(2-(1H-indol-3-yl)ethyl)carbamoyl)-5-(trifluoromethyl)-1H-pyrazol-1-yl)cyclohexanecarboxylic acid] | 32.4
O=C(c1cnn([C@H]2CC[C@H](C(=O)O)CC2)c1C(F)(F)F)N(CCc1cccc2cc[nH]c12)Cc1ccc(Cl)cc1 [Example 508, trans-4-(4-((4-chlorobenzyl)(2-(1H-indol-7-yl)ethyl)carbamoyl)-5-(trifluoromethyl)-1H-pyrazol-1-yl)cyclohexanecarboxylic acid] | 759
Cc1ccccc1CCN(Cc1ccc(Cl)cc1)C(=O)c1cnn([C@H]2CC[C@H](C(=O)O)CC2)c1C(F)(F)F [Example 509, trans-4-(4-((4-chlorobenzyl)(2-(2-methylphenyl)ethyl)carbamoyl)-5-(trifluoromethyl)-1H-pyrazol-1-yl)cyclohexanecarboxylic acid] | 11.5
Cc1cc(Cl)c(CCN(CC2CCCCC2)C(=O)c2cnn([C@H]3CC[C@H](C(=O)O)CC3)c2C(F)(F)F)c(Cl)c1 [Example 510, trans-4-(4-((cyclohexylmethyl)(2-(2,6-dichloro-4-methylphenyl)ethyl)carbamoyl)-5-(trifluoromethyl)-1H-pyrazol-1-yl)cyclohexanecarboxylic acid] | 1.78
Cc1[nH]c2ccccc2c1CCN(Cc1ccc(Cl)cc1)C(=O)c1cnn([C@H]2CC[C@H](C(=O)O)CC2)c1C(F)(F)F [Example 513, trans-4-(4-((4-chlorobenzyl)(2-(2-methyl-1H-indol-3-yl)ethyl)carbamoyl)-5-(trifluoromethyl)-1H-pyrazol-1-yl)cyclohexanecarboxylic acid] | 33.1
Cc1cc(Cl)c(CCN(CC2CCCCC2)C(=O)c2cnn([C@H]3CC[C@](C)(C(=O)O)CC3)c2C(F)(F)F)c(Cl)c1 [Example 514, trans-4-(4-((cyclohexylmethyl)(2-(2,6-dichloro-4-methylphenyl)ethyl)carbamoyl)-5-(trifluoromethyl)-1H-pyrazol-1-yl)-1-methylcyclohexanecarboxylic acid] | 1.91
Cc1cc(Cl)c(CCN(CC(C)(C)C)C(=O)c2cnn([C@H]3CC[C@](C)(C(=O)O)CC3)c2C(F)(F)F)c(Cl)c1 [Example 515, trans-4-(4-((2-(2,6-dichloro-4-methylphenyl)ethyl)(2,2-dimethylpropyl)carbamoyl)-5-(trifluoromethyl)-1H-pyrazol-1-yl)-1-methylcyclohexanecarboxylic acid] | 4.68
Cc1cc(Cl)c(C(=O)CN(CC(C)(C)C)C(=O)c2cnn([C@H]3CC[C@H](C(=O)O)CC3)c2C(F)(F)F)c(Cl)c1 [Example 517, trans-4-(4-((2-(2,6-dichloro-4-methylphenyl)-2-oxoethyl)(2,2-dimethylpropyl)carbamoyl)-5-(trifluoromethyl)-1H-pyrazol-1-yl)cyclohexanecarboxylic acid] | 25.1
Cc1cc(Cl)c(C(=O)CN(CC2CCC3(CC2)CC3)C(=O)c2cnn([C@H]3CC[C@H](C(=O)O)CC3)c2C(F)(F)F)c(Cl)c1 [Example 518, trans-4-(4-((2-(2,6-dichloro-4-methylphenyl)-2-oxoethyl)(spiro[2.5]oct-6-ylmethyl)carbamoyl)-5-(trifluoromethyl)-1H-pyrazol-1-yl)cyclohexanecarboxylic acid] | 2.63
Cc1cc(Cl)c(C(=O)CN(CC2(C)CCCCC2)C(=O)c2cnn([C@H]3CC[C@H](C(=O)O)CC3)c2C(F)(F)F)c(Cl)c1 [Example 519, trans-4-(4-((2-(2,6-dichloro-4-methylphenyl)-2-oxoethyl)((1-methylcyclohexyl)methyl)carbamoyl)-5-(trifluoromethyl)-1H-pyrazol-1-yl)cyclohexanecarboxylic acid] | 5.13
Cc1cc(Cl)c(C(=O)CN(CC2CC(C)(C)C2)C(=O)c2cnn([C@H]3CC[C@H](C(=O)O)CC3)c2C(F)(F)F)c(Cl)c1 [Example 520, trans-4-(4-((2-(2,6-dichloro-4-methylphenyl)-2-oxoethyl)((3,3-dimethylcyclobutyl)methyl)carbamoyl)-5-(trifluoromethyl)-1H-pyrazol-1-yl)cyclohexanecarboxylic acid] | 2.51
CC1(C)CC(CN(CC(=O)c2c(Cl)cccc2Cl)C(=O)c2cnn([C@H]3CC[C@H](C(=O)O)CC3)c2C(F)(F)F)C1 [Example 521, trans-4-(4-((2-(2,6-dichlorophenyl)-2-oxoethyl)((3,3-dimethylcyclobutyl)methyl)carbamoyl) 5-(trifluoromethyl)-1H-pyrazol-1-yl)cyclohexanecarboxylic acid] | 1.86
Cc1cc(Cl)c(C(=O)CN(Cc2cc(F)c(C(F)(F)F)c(F)c2)C(=O)c2cnn([C@H]3CC[C@H](C(=O)O)CC3)c2C(F)(F)F)c(Cl)c1 [Example 522, trans-4-(4-((2-(2,6-dichloro-4-methylphenyl)-2-oxoethyl)(3,5-difluoro-4-(trifluoromethyl)benzyl)carbamoyl)-5-(trifluoromethyl)-1H-pyrazol-1-yl)cyclohexanecarboxylic acid] | 2.09
CC(C)(C)CN(CCc1c(Cl)cccc1Cl)C(=O)c1cnn([C@H]2CC[C@H](C(=O)O)CC2)c1C(F)(F)F [Example 523, trans-4-(4-((2-(2,6-dichlorophenyl)ethyl)(2,2-dimethylpropyl)carbamoyl)-5-(trifluoromethyl)-1H-pyrazol-1-yl)cyclohexanecarboxylic acid] | 8.71
CC(C)(C)CN(C[C@H](O)c1c(Cl)cccc1Cl)C(=O)c1cnn([C@H]2CC[C@H](C(=O)O)CC2)c1C(F)(F)F [Example 524, trans-4-(4-(((2R)-2-(2,6-dichlorophenyl)-2-hydroxyethyl)(2,2-dimethylpropyl)carbamoyl)-5-(trifluoromethyl)-1H-pyrazol-1-yl)cyclohexanecarboxylic acid] | 77.6
CC1(C)CCC(N(CC(=O)c2c(Cl)cccc2Cl)C(=O)c2cnn([C@H]3CC[C@H](C(=O)O)CC3)c2C(F)(F)F)CC1 [Example 525, trans-4-(4-((2-(2,6-dichlorophenyl)-2-oxoethyl)(4,4-dimethylcyclohexyl)carbamoyl)-5-(trifluoromethyl)-1H-pyrazol-1-yl)cyclohexanecarboxylic acid] | 5.89
O=C(c1cnn([C@H]2CC[C@H](C(=O)O)CC2)c1C(F)(F)F)N(CCc1c(Cl)cccc1Cl)Cc1ccc(C(F)(F)F)cc1 [Example 526, trans-4-(4-((2-(2,6-dichlorophenyl)ethyl)(4-(trifluoromethyl)benzyl)carbamoyl)-5-(trifluoromethyl)-1H-pyrazol-1-yl)cyclohexanecarboxylic acid] | 5.89
